{"source": "ChEMBL document CHEMBL5113512", "about": "“β-Nitrostyrene derivatives as broad range potential antifungal agents targeting fungal cell wall” (2022)", "key": {"[1]": {"system": "Candida", "test": "Downregulation of CDC42 gene expression in Candida cells", "assay_type": "functional, cell-based"}, "[2]": {"system": "Candida parapsilosis", "test": "Antifungal activity against Candida parapsilosis ATCC 90018 assessed as inhibition of fungal growth by broth microdilution method", "assay_type": "functional", "conditions": "Lodderomyces parapsilosis"}, "[3]": {"system": "Candida parapsilosis", "test": "Synergistic antifungal activity against Candida parapsilosis ATCC 90018 assessed as Congo red MIC incubated for 48 hrs by checker board assay", "assay_type": "functional", "conditions": "Lodderomyces parapsilosis"}, "[4]": {"system": "Candida albicans", "test": "Synergistic antifungal activity against Candida albicans SN152 harboring CAS5 mutant assessed as inhibition of fungal growth incubated for 48 hrs in presence of Amphotericin B by checker board assay", "assay_type": "functional"}, "[5]": {"system": "Candida", "test": "Upregulation of ARG5 gene expression in Candida cells", "assay_type": "functional, cell-based"}, "[6]": {"system": "Candida", "test": "Downregulation of CDC15 gene expression in Candida cells", "assay_type": "functional, cell-based"}, "[7]": {"system": "Candida albicans", "test": "Antifungal activity against Candida albicans ATCC 24433 overexpressing transporter protein GU5 assessed as inhibition of fungal growth by broth microdilution method", "assay_type": "functional"}, "[8]": {"system": "Candida albicans", "test": "Inhibition of drug efflux in Candida albicans ATCC 24433 overexpressing ADCaMDR1-GF assessed as […] in nile red efflux incubated for 30 mins by flow cytometry", "assay_type": "functional"}, "[9]": {"system": "[Candida] auris", "test": "Synergistic antifungal activity against Candida auris CBS10913 assessed as inhibition of fungal growth incubated for 48 hrs in presence of Calcoflour White by checker board assay", "assay_type": "functional", "conditions": "Candidozyma auris"}, "[10]": {"system": "Candida albicans", "test": "Synergistic antifungal activity against Candida albicans ATCC 24433 assessed as fractional inhibitory concentration index incubated for 48 hrs in presence of Congo red by checker board assay", "assay_type": "functional"}, "[11]": {"system": "Candida albicans", "test": "Antifungal activity against Candida albicans ATCC 24433 assessed as inhibition of fungal growth by broth microdilution method", "assay_type": "functional"}, "[12]": {"system": "Candida albicans", "test": "Synergistic antifungal activity against Candida albicans SN152 harboring CAS5 mutant assessed as inhibition of fungal growth incubated for 48 hrs in presence of Caspofungin by checker board assay", "assay_type": "functional"}, "[13]": {"system": "Candida", "test": "Downregulation of PGA13 gene expression in Candida cells", "assay_type": "functional, cell-based"}, "[14]": {"system": "Candida albicans", "test": "Synergistic antifungal activity against wild type Candida albicans SN152 assessed as fractional inhibitory concentration index incubated for 48 hrs in presence of Caspofungin by checker board assay", "assay_type": "functional"}, "[15]": {"system": "Candida albicans", "test": "Antifungal activity against Candida albicans SN152 harboring CAS5 mutant assessed as inhibition of fungal growth by broth microdilution method", "assay_type": "functional"}, "[16]": {"system": "Candida albicans", "test": "Synergistic antifungal activity against wild type Candida albicans SN152 assessed as inhibition of fungal growth incubated for 48 hrs in presence of Amphotericin B by checker board assay", "assay_type": "functional"}, "[17]": {"system": "Candida albicans", "test": "Synergistic antifungal activity against wild type Candida albicans SN152 assessed as inhibition of fungal growth incubated for 48 hrs in presence of fluconazole by checker board assay", "assay_type": "functional"}, "[18]": {"system": "Candida", "test": "Downregulation of CMP1 gene expression in Candida cells", "assay_type": "functional, cell-based"}, "[19]": {"system": "Candida albicans", "test": "Upregulation of NAG4 gene expression in Candida albicans ATCC 24433 by qRT-PCR analysis", "assay_type": "functional"}, "[20]": {"system": "Candida", "test": "Upregulation of CPA1 gene expression in Candida cells", "assay_type": "functional, cell-based"}, "[21]": {"system": "Candida parapsilosis", "test": "Synergistic antifungal activity against Candida parapsilosis ATCC 90018 assessed as fractional inhibitory concentration index incubated for 48 hrs in presence of SDS by checker board assay", "assay_type": "functional"}, "[22]": {"system": "Candida", "test": "Upregulation of ARG2 gene expression in Candida cells", "assay_type": "functional, cell-based"}, "[23]": {"system": "Candida", "test": "Downregulation of PGA48 gene expression in Candida cells", "assay_type": "functional, cell-based"}, "[24]": {"system": "[Candida] auris", "test": "Synergistic antifungal activity against Candida auris CBS10913 assessed as Calcoflour White MIC incubated for 48 hrs by checker board assay", "assay_type": "functional", "conditions": "Candidozyma auris"}, "[25]": {"system": "Candida", "test": "Downregulation of RIO2 gene expression in Candida cells", "assay_type": "functional, cell-based"}, "[26]": {"system": "Candida albicans", "test": "Antifungal activity against Candida albicans ATCC 24433 overexpressing transporter protein F2 assessed as inhibition of fungal growth by broth microdilution method", "assay_type": "functional"}, "[27]": {"system": "Candidozyma auris", "test": "Upregulation of CaPHO15 gene expression in Candida auris CBS10913 assessed as increase in glycerol content at sub-inhibitory concentration incubated for 2 hrs", "assay_type": "functional"}, "[28]": {"system": "Candida", "test": "Upregulation of CPA2 gene expression in Candida cells", "assay_type": "functional, cell-based"}, "[29]": {"system": "Candida parapsilosis", "test": "Synergistic antifungal activity against Candida parapsilosis ATCC 90018 assessed as inhibition of fungal growth incubated for 48 hrs in presence of SDS by checker board assay", "assay_type": "functional", "conditions": "Lodderomyces parapsilosis"}, "[30]": {"system": "Candida albicans", "test": "Antifungal activity against wild type Candida albicans SN152 assessed as inhibition of fungal growth by broth microdilution method", "assay_type": "functional"}, "[31]": {"system": "Cell membrane", "test": "Disruption of membrane integrity in Candida auris CBS10913 assessed as cell shrinkage and lysis by measuring leakage of intracellular material measured after 6 hrs by SEM analysis", "conditions": "Candidozyma auris"}, "[32]": {"system": "Candida albicans", "test": "Synergistic antifungal activity against Candida albicans ATCC 24433 assessed as fractional inhibitory concentration index incubated for 48 hrs in presence of SDS by checker board assay", "assay_type": "functional"}, "[33]": {"system": "Candida", "test": "Downregulation of VPS34 gene expression in Candida cells", "assay_type": "functional, cell-based"}}, "note": "Calls of active or inactive are those of the source. The calls are words filed in the database; no cut-off is given here."}
{"smiles": "O=[N+]([O-])/C=C/c1ccc(O)cc1", "values": [{"measurement": "Activity", "setting": "[1]", "result": "Active"}, {"measurement": "MIC80", "setting": "[2]", "result": 8, "unit": "µg/mL"}, {"measurement": "MIC", "setting": "[3]", "result": 6.25, "unit": "µg/mL"}, {"measurement": "MIC", "setting": "[4]", "result": 0.0312, "unit": "µg/mL"}, {"measurement": "Activity", "setting": "[5]", "result": "Active"}, {"measurement": "Activity", "setting": "[6]", "result": "Active"}, {"measurement": "MIC80", "setting": "[7]", "result": 4, "unit": "µg/mL"}, {"measurement": "inhibition", "setting": "[8]", "result": "Active"}, {"measurement": "MIC", "setting": "[9]", "result": 0.25, "unit": "µg/mL"}, {"measurement": "fractional inhibitory concentration index (FICI)", "setting": "[10]", "result": 0.375}, {"measurement": "MIC80", "setting": "[11]", "result": 4, "unit": "µg/mL"}, {"measurement": "MIC", "setting": "[12]", "result": 1.9, "unit": "ng/mL"}, {"measurement": "Activity", "setting": "[13]", "result": "Active"}, {"measurement": "fractional inhibitory concentration index (FICI)", "setting": "[14]", "result": 0.257}, {"measurement": "MIC80", "setting": "[15]", "result": 2, "unit": "µg/mL"}, {"measurement": "MIC", "setting": "[16]", "result": 0.0625, "unit": "µg/mL"}, {"measurement": "MIC", "setting": "[17]", "result": 3.9, "unit": "ng/mL"}, {"measurement": "Activity", "setting": "[18]", "result": "Active"}, {"measurement": "Activity", "setting": "[19]", "result": "Active"}, {"measurement": "Activity", "setting": "[20]", "result": "Active"}, {"measurement": "fractional inhibitory concentration index (FICI)", "setting": "[21]", "result": 0.375}, {"measurement": "Activity", "setting": "[22]", "result": "Active"}, {"measurement": "Activity", "setting": "[23]", "result": "Active"}, {"measurement": "MIC", "setting": "[24]", "result": 25, "unit": "µg/mL"}, {"measurement": "Activity", "setting": "[25]", "result": "Active"}, {"measurement": "MIC80", "setting": "[26]", "result": 2, "unit": "µg/mL"}, {"measurement": "Activity", "setting": "[27]", "result": "Active"}, {"measurement": "Activity", "setting": "[28]", "result": "Active"}, {"measurement": "MIC", "setting": "[29]", "result": 1, "unit": "µg/mL"}, {"measurement": "MIC80", "setting": "[30]", "result": 8, "unit": "µg/mL"}, {"measurement": "Activity", "setting": "[31]", "result": "Active"}, {"measurement": "fractional inhibitory concentration index (FICI)", "setting": "[32]", "result": 0.5}, {"measurement": "Activity", "setting": "[33]", "result": "Active"}]}
